Results reported in publication PMC8315060, “N-terminus-independent activation of c-Src via binding to a tetraspan(in) TM4SF5 in hepatocellular carcinoma is abolished by the TM4SF5 C-terminal peptide application” (Theranostics, 2021).
Where a SMILES comes first, the peptide text is derived from it.

Legend:
[1] = test system: SNU761-TM4SF5 cells; assay: Transwell chemotactic migration of SNU761-TM4SF5 cells with PP2; type: cell-based, human; settings: PP2 10 μM, transwell migration 4 h, 10% FBS; Figure 3F and S2B
Experimental: SNU761 cells stably expressing TM4SF5WT were transiently transfected with control siRNA against a scrambled sequence (siControl) or PTP1B (siPTP1B) for 48 h before undergoing the Transwell migration assay for 4 h. Cells were treated with the CPPs before being loaded into the upper chambers. The cells were then analyzed for migration or invasion using Transwell chambers with 8-μm pores (Corning Inc., Corning, NY, USA), where the bottom chamber was filled with 1% BSA alone (in serum-free media) or normal culture media containing 10% FBS as explained previously. After incubation, the number of migrated cells from randomly saved images (n = 10) per condition was counted. The data are graphed as the mean ± standard deviation (SD) for each experimental condition.
Figure S2. TM4SF5-mediated invasion and migration involves PTP1B-regulated c-Src activity. (A) SNU761 cells stably expressing mock or TM4SF5WT were transiently transfected without (No T/F) or with c-Src WT, c-Src SH432, or c-Src SH1 expression constructs for 48 h prior to invasive ECM degradation analysis for 4 h. (B) SNU761 cells stably expressing TM4SF5WT were transiently transfected with control siRNA against a scrambled sequence (siControl) or a sequence in PTP1B (siPTP1B) for 48 h, prior to transwell migration assay for 4 h. […]

[2] = test system: SNU449Tp cells expressing FAK-KD; assay: Transwell migration of FAK-KD-expressing SNU449Tp cells with PP2 or PP3; type: cell-based, human; settings: SNU449Tp cells infected with FAK-KD adenovirus, 10 μM, transwell migration 12 h, 10% FBS in lower chamber; Figure S1C
[3] = test system: SNU449T7 cells stably expressing TM4SF5; assay: Mouse tumor xenograft of TM4SF5-expressing SNU449 cells; type: in vivo, BALB/c-nu/nu mice
Experimental: Mouse tumor xenograft: Four-week-old female or male BALB/c-nu/nu mice were purchased from Orient Co. Ltd (Seungnam, Korea). All animal procedures were performed in accordance with the Seoul National University Laboratory Animal Maintenance Manual and with Institutional Review Board approval (SNU-130311-6-2, SNU-140423-11-7). Mice were housed in a specific pathogen-free room under controlled temperature and humidity. Viable SNU449T7 cells (5 × 10^6) stably expressing TM4SF5 or PLC/PRF/5 cells (10^7) endogenously expressing TM4SF5 were resuspended in sterile PBS and injected subcutaneously into 5-week-old mice (n = 5 or 6, respectively). […] Body weight and tumor volume, which was determined as described previously, were measured daily.
Figure 7 TM4SF5 C-terminal peptides suppress TM4SF5-mediated tumorigenesis and metastasis. […] (E) Degradation of Oregon Green® 488-conjugated gelatin were analyzed for SNU761 cells stably expressing mock (mock) or TM4SF5WT with the 10 μM CPPs treatment for 24 h (mean ± SD values). (F) TM4SF5-null SNU449Cp (Cp) and stably TM4SF5-expressing SNU449Tp (Tp) cells were treated with the 10 μM CPPs for 24 h and then analyzed for transwell migration for 4 h (mean ± SD values in the graph). […] Surface nodules were counted and the mean ± SD values are presented (graph). […]

[4] = Stability of peptides in mouse serum; type: in vitro ADME; settings: C57BL/6 mouse serum, 10 ppm/reaction, 24 h vs 0 h (without mixing with serum), formic acid precipitation, LC (ZORBAX Eclipse C18) with ELSD; one range printed for both peptides; Figure S6A
Experimental: collected after centrifugation at 13,000 × g for 10 min and stored at -20 ℃. To analyze, we used the ZORBAX Eclipse C18 Column (2.6 × 250 mm, 5 μm) in the Agilent 1200 Infinity LC and kept the column temperature at 40 ℃. Injection volume from samples was 20 μL and for the mobile phase, MS grade water with 0.1% formic acid (‘a’) and MS grade acetonitrile (‘b’) were flowed at the velocity of 1 mL/min. The gradient per sample was ‘a’ (5%)/’b’(95%) for 0 and 5 min, ‘a’ (90%)/’b’(10%) for 10 min, and ‘a’ (40%)/’b’(60%) for 15 min. Agilent 1260 infinity ELSD was used with an LC stack for detection. […]

[5] = biological target: STrEP-tagged TM4SF5WT (UniProt O14894); assay: streptavidin pull-down and immunoblot; settings: SNU449 cells with STrEP-TM4SF5; 50 kDa band, IP: STrEP lanes
STrEP-tagged TM4SF5WT, sequence (O14894 whole entry): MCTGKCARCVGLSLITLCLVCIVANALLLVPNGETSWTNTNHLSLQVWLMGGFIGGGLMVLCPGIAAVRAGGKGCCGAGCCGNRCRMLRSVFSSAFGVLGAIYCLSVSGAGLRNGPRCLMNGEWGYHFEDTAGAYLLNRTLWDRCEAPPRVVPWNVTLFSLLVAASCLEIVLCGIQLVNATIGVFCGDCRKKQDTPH

CC(C)(C)n1nc(-c2ccc(Cl)cc2)c2c(N)ncnc21 [PP2]
chemotactic migration of SNU761-TM4SF5 cells [1]: abolished | residual migration of FAK-KD cells [2]: abolished | TM4SF5-dependent tumor formation in xenograft ([3]; 3 mg/kg subcutaneous injection every day for 10 days, n = 4, Figure S5A): suppressed TM4SF5-dependent tumor formation | effect on xenograft tumor growth, 15-day treatment ([3]; n = 6, 15 days, PP2 3 mg/kg, TCsr 0.111 nmol/g, TcxC 0.095 nmol/g, Figure S5B): suppressive effect

C[C@@H](O)[C@H](NC(=O)[C@@H]1CCCN1C(=O)[C@H](CCCNC(=N)N)NC(=O)[C@H](CCCNC(=N)N)NC(=O)[C@H](CCCNC(=N)N)NC(=O)[C@H](CCC(N)=O)NC(=O)[C@H](CCCNC(=N)N)NC(=O)[C@H](CCCNC(=N)N)NC(=O)[C@H](CCCCN)NC(=O)[C@H](CCCCN)NC(=O)[C@@H](N)CCCNC(=N)N)C(=O)N[C@@H](CS)C(=O)N[C@@H](CCCCN)C(=O)N1CCC[C@H]1C(=O)N[C@@H](CC(=O)O)C(=O)N[C@@H](CCCCN)C(=O)NCC(=O)N[C@@H](CCC(N)=O)C(=O)N[C@@H](CCCNC(=N)N)C(=O)N[C@@H](Cc1c[nH]cn1)C(=O)N[C@@H](CC(=O)O)C(=O)O [TCsr] (H-RKKRRQRRRPTCKPDKGQRHD-OH)
peptide remaining after incubation in mouse serum [4]: 44-65%

CC[C@H](C)[C@H](NC(=O)[C@@H](NC(=O)[C@H](CS)NC(=O)[C@@H]1CCCN1C(=O)[C@H](CCCNC(=N)N)NC(=O)[C@H](CCCNC(=N)N)NC(=O)[C@H](CCCNC(=N)N)NC(=O)[C@H](CCC(N)=O)NC(=O)[C@H](CCCNC(=N)N)NC(=O)[C@H](CCCNC(=N)N)NC(=O)[C@H](CCCCN)NC(=O)[C@H](CCCCN)NC(=O)[C@@H](N)CCCNC(=N)N)C(C)C)C(=O)N[C@@H](CCSC)C(=O)NCC(=O)N[C@@H](CC(=O)O)C(=O)N[C@@H](CS)C(=O)N[C@@H](CCCNC(=N)N)C(=O)N[C@@H](CCCCN)C(=O)N[C@@H](CCCCN)C(=O)N[C@@H](CCC(N)=O)C(=O)N[C@@H](CC(=O)O)C(=O)N[C@H](C(=O)N1CCC[C@H]1C(=O)N[C@@H](Cc1c[nH]cn1)C(=O)O)[C@@H](C)O [TcxC] (H-RKKRRQRRRPCVIMGDCRKKQDTPH-OH)
peptide remaining after incubation in mouse serum [4]: 44-65%

c-Src-SH321 Y419F
response (relative band intensity (ImageJ ratio)) [5]: 1

c-Src-SH321 Y419F; Y530F
response (relative band intensity (ImageJ ratio)) [5]: 0

c-Src-SH321 Y530F
response (relative band intensity (ImageJ ratio)) [5]: 0
